Experimental data from patent US7842681B2, “Treatment of myeoproliferative diseases” (Abbott Laboratories, priority 2006, dated 2010).

Key:
[1] = test system: circulating platelets; assay: Circulating platelet count in dogs on multiple oral daily dosing; format: in vivo; settings: male beagle dogs, once daily oral gavage, 2 mg/kg days 2-7, 6 mg/kg days 8-15 (FIG. 5)
Experimental: (§1) The effect of Bcl-2 protein inhibitors on circulating platelets can be determined by administration of test compounds, preferably orally or intravenously, to an animal and analyzing a blood sample and determining the number of platelets by techniques well-known in the art. Preferably, blood samples are obtained from about 2 hours to about 48 hours after compound administration.
Male beagle dogs (n=3/group; 8-12 kg) were treated once daily with N-(4-(4-((2-(4-chlorophenyl)-5,5-dimethyl-1-cyclohex-1-en-1-yl)methyl)piperazin-1-yl)benzoyl)-4-(((1R)-3-(morpholin-4-yl)-1-((phenylsulfanyl)methyl)propyl)amino)-3-((trifluoromethyl)sulfonyl)benzenesulfonamide in 10:90 DMSO/PEG 400 (by volume) by oral gavage at a dose of 2 mg/kg on days 2-7 and at a dose of 6 mg/kg on days 8-15 of the study. Blood samples were collected at baseline and 6 hours post dosing on days 2-5, 8-12 and day 15 from the jugular vein, treated with EDTA and the whole blood analyzed for platelet counts on a Cell-Dyn 3700 (Abbott Laboratories). Percent starting platelet counts (PC) were calculated using the following equation. [1−(PCt=0−PCt=6)/PCt=0]×100%.

[2] = test system: human platelets; assay: Viability of human platelets; format: cell-based
[3] = test system: platelets; assay: Activation of apoptotic processes in platelets; format: cell-based, dog and human
[4] = test system: dog platelets; assay: Viability of dog platelets; format: cell-based
[5] = test system: Bcl-2; assay: Binding to Bcl-2 protein
Experimental: Binding affinity of compounds to Bcl-2 protein is indicia of their inhibition of the activity of this protein. To determine the binding affinity of compounds to Bcl-2, representative examples were diluted in DMSO to concentrations between […] and added to each well of a 96-well microtiter plate. A mixture comprising 125 µL per well of assay buffer (20 mM phosphate buffer (pH 7.4), 1 mM EDTA, 50 mM NaCl, 0.05% PF-68), 10 nM of Bcl-2 protein (prepared according to the procedure described in PNAS 2001, 98, 3012-3017), 1 nM fluorescein-labeled BAX peptide (prepared in-house) and the DMSO solution of the representative example was shaken for 2 minutes and placed in a LJL Analyst (LJL Bio Systems, CA. Polarization was measured at room temperature using a continuous Fluorescein lamp (excitation 485 nm, emission 530 nm). Percentage of inhibition was determined by (1-((mP value of well-negative control)/range))×100%.

[6] = biological target: T1, Bcl-XL (Homo sapiens, UniProt Q07817); assay: Binding to Bcl-XL protein
T1 construct: made in house
Experimental: Binding affinity of compounds to Bcl-XL protein is indicia of their inhibition of the activity of this protein. To determine the binding affinity of compounds to Bcl-XL protein, representative examples were diluted in DMSO to concentrations between 100 μM and 1 μM and added to each well of a 96-well microtiter plate. A mixture comprising 125 μL per well of assay buffer (20 mM phosphate buffer (pH 7.4), 1 mM EDTA, 50 mM NaCl, 0.05% PF-68), 6 nM of Bcl-XL protein (prepared as described in Science 1997, 275, 983-986), 1 nM fluorescein-labeled BAD peptide (prepared in-house) and the DMSO solution of the compound was shaken for 2 minutes and placed in a LJL Analyst (LJL Bio Systems, CA). A negative control (DMSO, 15 nM BAD peptide, assay buffer) and a positive control (DMSO, 1 nM BAD peptide, 6 nM Bcl-XL, assay buffer) were used to determine the range of the assay. Polarization was measured at room temperature using a continuous Fluorescein lamp (excitation 485 nm, emission 530 nm). Percentage of inhibition was determined by (1-((mP value of well-negative control)/range))×100%.

[7] = biological target: T2, Bcl-w (Homo sapiens, UniProt Q92843); assay: Binding to Bcl-w
T2 sequence (Q92843 1-193): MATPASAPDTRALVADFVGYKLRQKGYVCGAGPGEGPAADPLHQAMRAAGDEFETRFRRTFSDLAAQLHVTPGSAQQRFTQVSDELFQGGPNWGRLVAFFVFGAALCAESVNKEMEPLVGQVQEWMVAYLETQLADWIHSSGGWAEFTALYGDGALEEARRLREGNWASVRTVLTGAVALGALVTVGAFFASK

[8] = test system: isolated platelets; assay: Aggregation of isolated platelets; format: cell-based
[9] = test system: circulating platelets; assay: Circulating platelet count in dogs after a single oral dose; format: in vivo; settings: male beagle dogs, one 5 mg/kg oral dose (FIG. 1, FIG. 2)
Experimental: as §1
Male beagle dogs (n=3/group; 8-12 kg) were treated with a single dose of 5 mg/kg N-(4-(4-((2-(4-chlorophenyl)-4,4-dimethylcyclohex-1-en-1-yl)methyl)piperazin-1-yl)benzoyl)-4-(((1R)-3-(morpholin-4-yl)-1-((phenylsulfanyl)methyl)propyl)amino)-3-((trifluoromethyl)sulfonyl)benzenesulfonamide in 10:30:60 ethanol/phosal 50 PG/PEG 400 (by weight) by oral gavage. Blood samples were collected at baseline and at the indicated time points from the jugular vein, treated with EDTA and the whole blood analyzed for platelet counts on a Cell-Dyn 3700 (Abbott Laboratories).
Male beagle dogs (n=3/group; 8-12 kg) were treated with a single dose of 5 mg/kg 3-((chloro(difluoro)methyl)sulfonyl)-N-(4-(4-((2-(4-chlorophenyl)-4,4-dimethylcyclohex-1-en-1-yl)methyl)piperazin-1-yl)benzoyl)-4-(((1R)-3-(morpholin-4-yl)-1-((phenylsulfanyl)methyl)propyl)amino)benzenesulfonamide in 10:90 DMSO/PEG 400 (by volume) by oral gavage. […]

T1 sequence (Q07817 whole entry): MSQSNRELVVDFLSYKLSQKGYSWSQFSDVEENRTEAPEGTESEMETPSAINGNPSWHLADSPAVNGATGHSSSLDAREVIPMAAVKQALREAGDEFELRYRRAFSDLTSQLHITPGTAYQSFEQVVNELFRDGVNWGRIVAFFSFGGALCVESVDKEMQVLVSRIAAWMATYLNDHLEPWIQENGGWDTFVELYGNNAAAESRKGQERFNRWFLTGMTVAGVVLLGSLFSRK

| Compound | circulating platelet count, multiple oral dosing [1] | viability of platelets [2] | PS (phosphotidyl serine) externalization [3] | caspase 3 activation [3] | cytochrome c release [3] | viability of platelets [4] | binding to Bcl-2 [5] | binding to Bcl-XL [6] | binding to Bcl-w [7] | aggregation of isolated platelets [8] | circulating platelet count [9] |
| --- | --- | --- | --- | --- | --- | --- | --- | --- | --- | --- | --- |
| CC1(C)CCC(c2ccc(Cl)cc2)=C(CN2CCN(c3ccc(C(=O)NS(=O)(=O)c4ccc(N[C@H](CCN5CCOCC5)CSc5ccccc5)c(S(=O)(=O)C(F)(F)F)c4)cc3)CC2)C1 [EXAMPLE 2, N-(4-(4-((2-(4-chlorophenyl)-5,5-dimethyl-1-cyclohex-1-en-1-yl)methyl)piperazin-1-yl)benzoyl)-4-(((1R)-3-(morpholin-4-yl)-1-((phenylsulfanyl)methyl)propyl)amino)-3-((trifluoromethyl)sulfonyl)benzenesulfonamide] | proportionate effect | reduced | activated | activated | activated | reduced | capable of binding | capable of binding | capable of binding | did not induce |  |
| CC1(C)CCC(CN2CCN(c3ccc(C(=O)NS(=O)(=O)c4ccc(N[C@H](CCN5CCOCC5)CSc5ccccc5)c(S(=O)(=O)C(F)(F)F)c4)cc3)CC2)=C(c2ccc(Cl)cc2)C1 [EXAMPLE 6, N-(4-(4-((2-(4-chlorophenyl)-4,4-dimethylcyclohex-1-en-1-yl)methyl)piperazin-1-yl)benzoyl)-4-(((1R)-3-(morpholin-4-yl)-1-((phenylsulfanyl)methyl)propyl)amino)-3-((trifluoromethyl)sulfonyl)benzenesulfonamide] |  |  |  |  |  |  |  |  |  |  | rapid reduction in circulating platelet count |
| CN(C)CC[C@H](CSc1ccccc1)Nc1ccc(S(=O)(=O)NC(=O)c2ccc(N3CCN(Cc4ccccc4-c4ccc(Cl)cc4)CC3)cc2)cc1[N+](=O)[O-] [EXAMPLE 7, N-(4-(4-((4′-chloro(1,1′-biphenyl)-2-yl)methyl)piperazin-1-yl)benzoyl)-4-(((1R)-3-(dimethylamino)-1-((phenylsulfanyl)methyl)propyl)amino)-3-nitrobenzenesulfonamide] |  |  |  |  |  |  | capable of binding | capable of binding | capable of binding |  |  |
